Measurements as given in paper PMC11087525 (Scientific Reports, 2024).

Experiments:
SARS-CoV-2 Delta variant [1] = settings: cited from earlier work
SARS-CoV-2 Delta variant [2] = assay type: cell-based

In the case of `CC(C)(C)[C@H](NC(=O)C(F)(F)F)C(=O)N1C[C@H]2[C@@H]([C@H]1C(=O)N[C@H](C#N)C[C@@H]1CCNC1=O)C2(C)C` [NMR, nirmatrelvir], the “EC90 for the Delta variant” value (SARS-CoV-2 Delta variant [1]; conversion of 0.149 µM) is given as ~ 100 ng/mL, the EC90 (SARS-CoV-2 Delta variant [1]; used in PBPK simulation study) is given as 149 nM and the “EC90 for the Delta variant multiplied by a factor of 3” value (SARS-CoV-2 Delta variant [2]) is given as 0.3 µg/mL.
